Reference: the NIST ThermoML archive (doi:10.1016/j.jct.2015.08.031)
± gives the expanded uncertainty stated by the source.

Details: 101.33 kPa, Crystal, relaxation calorimeter

O[C@H]1[C@H](O)[C@H](O)OC[C@H]1O [β-D-arabinopyranose]
Details	molar entropy [J/K/mol]
0.5 K	0.0007089 ± 8.4e-05
1 K	0.001551 ± 0.00017
1.5 K	0.002666 ± 0.00028
2 K	0.004203 ± 0.00045
2.5 K	0.006327 ± 0.00067
3 K	0.009226 ± 0.00097
3.5 K	0.01311 ± 0.0014
4 K	0.01824 ± 0.0019
4.5 K	0.02488 ± 0.0026
5 K	0.03336 ± 0.0035
5.5 K	0.04406 ± 0.0046
6 K	0.0574 ± 0.006
6.5 K	0.07383 ± 0.0077
7 K	0.09385 ± 0.0098
7.5 K	0.118 ± 0.012
8 K	0.1468 ± 0.015
8.5 K	0.1809 ± 0.019
9 K	0.2206 ± 0.023
9.5 K	0.2662 ± 0.028
10 K	0.3182 ± 0.033
11 K	0.4423 ± 0.046
12 K	0.5944 ± 0.062
13 K	0.7758 ± 0.081
14 K	0.9866 ± 0.1
15 K	1.227 ± 0.13
16 K	1.496 ± 0.16
17 K	1.793 ± 0.19
18 K	2.116 ± 0.22
19 K	2.466 ± 0.26
20 K	2.839 ± 0.3
25 K	5.013 ± 0.31
30 K	7.582 ± 0.46
35 K	10.43 ± 0.64
40 K	13.47 ± 0.82
45 K	16.66 ± 1
50 K	19.95 ± 1.2
55 K	23.28 ± 1.4
60 K	26.64 ± 1.6
65 K	30 ± 1.8
70 K	33.38 ± 2
75 K	36.77 ± 2.2
80 K	40.16 ± 2.4
85 K	43.54 ± 2.7
90 K	46.93 ± 2.9
95 K	50.31 ± 3.1
100 K	53.68 ± 3.3
110 K	60.41 ± 3.7
120 K	67.11 ± 4.1
130 K	73.78 ± 4.5
140 K	80.41 ± 4.9
150 K	87.01 ± 5.3
160 K	93.58 ± 5.7
170 K	100.12 ± 6.1
180 K	106.62 ± 6.5
190 K	113.1 ± 6.9
200 K	119.55 ± 7.3
210 K	125.98 ± 7.7
220 K	132.38 ± 8.1
230 K	138.76 ± 8.4
240 K	145.12 ± 8.8
250 K	151.45 ± 9.2
260 K	157.77 ± 9.6
270 K	164.07 ± 10
273.15 K	166.06 ± 10
280 K	170.36 ± 10
290 K	176.63 ± 11
298.15 K	181.72 ± 11
300 K	182.88 ± 11
